# Patent publication US5527773A, “Use of synthetic peptides to disrupt the cytoskeleton” (United States of America, priority 1993, dated 1996)
# Assays:
# [1] = Solubility of the peptide; type: physicochemical
# Procedure: (§1) Microinjected cells were prepared for indirect immunofluorescence and confocal microscopy as described (Yang et al., (1985) J. Cell Biol., 100: 620-631). IF disassembly was assessed by immunofluorescence using antibodies against IFs. […] At 1 mg/ml peptide, cells rounded up completely within 30 min, respreading and regaining their shape after a few hours. […] The rounded-up cells contained spots of fluorescence indicating a rather complete disruption of IF structure. Recovery occurred within 3-4 hours indicating a need to maintain a constant supply of peptide to maintain the disassembled state of the IF network. The 1A peptide was soluble at 5-10 mg/ml, although higher concentrations may also be obtainable.
# [2] = tested on: keratin and vimentin/desmin IF networks in PtK2, BHK21 and mouse 3T3 fibroblasts; assay: Microinjection of the 1A peptide into cells, indirect immunofluorescence and confocal microscopy; type: cell-based, kangaroo rat, baby hamster
# Procedure: The synthetic peptide corresponding to the keratin 1 chain 1A region (SEQ ID NO: 2) was microinjected into PtK2, BHK21 and mouse 3T3 fibroblasts according to the procedure of Vikstrom et al. (Proc. Natl. Acad. Sci. U.S.A., (1989) 86: 549-553; Methods Enzymol., (1991) 176: 506-525). BHK-21 cells contain type III filaments composed of vimentin and desmin, while 3T3 cells contain only vimentin. PtK2 cells contain mainly keratin. Briefly, peptides in 20 mM Tris-HCl. pH 8.5, 0.17M NaCl, 3 mM KCl were clarified by centrifugation for 30 min at 100,000×g immediately prior to microinjection. Protein concentrations in samples were determined by the method of Bradford (Anal. Biochem., 72: 248-254 (1976)). Micropipettes (W-P instruments) were prepared on a micropipette puller (Industrial Science Associates). Microinjections were monitored with a Leitz Diavert phase-contrast microscope fitted with a Leitz micromanipulator according to standard techniques (Graessmann and Graessmann, (1976) Proc. Natl. Acad. Sci. U.S.A., 73: 366-370; Kreis and Birchmeier, (1982) Int. Rev. Cytol., 75: 209-227).
# as §1
# [3] = tested on: preformed keratin IFs; assay: Disassembly of preformed keratin IFs by synthetic peptides (light scattering, electron microscopy); type: biochemical, human
# Procedure: In vitro filament assembly assays (1-1.5 mg/ml) were performed by dialysis for 2 hours each into decreasing concentrations of urea (6, 4, 2, 1 and 0M) containing 5 mM Tris-HCl, pH 7.6, 1 mM EDTA, 1 mM dithiothreitol. […]. Light scattering was measured at 310 nm in a Beckman DU65 spectrophotometer. Synthetic peptides (1-30 μl of a 0.5-2 mg/ml solution) were added to 1 ml samples of keratin filaments, incubated at 37° C., and filament assembly was measured by light scattering. […] Samples of these reactions were also collected for visualization by electron microscopy and stopped by negative staining with freshly-prepared 0.7% uranyl acetate.
# Peptides corresponding to the H1, beginning of 1A, and full-length 1A regions (SEQ ID NO: 1-3) of the human keratin 1 chain were individually mixed with preformed keratin IFs in vitro at a 1:1 molar ratio.
substance,measurement,setting,value
1A*: the first 18 amino acids of SEQ ID NO: 2 (1A peptide) (REQIKSLNNQFASFIDKV),solubility,[1],5000 to 10000 µg/mL
same,IF structure by immunofluorescence during rounding,[2]; 1 mg/ml peptide,disorganized arrays of IFs
same,time to complete rounding up of cells,[2]; 1 mg/ml peptide,≤ 30 min
same,alteration of IF networks,[2]; 2-5 mg/ml peptide,very significant alterations in both the keratin and vimentin/desmin IF networks
same,time to recovery,[2]; 2-5 mg/ml peptide,3 to 4 h
same,overall cell shape,"[2]; about 0.5 mg/ml peptide microinjected, after 15-20 min",altered slightly due to the partial rounding up
same,overall IF structure by immunofluorescence,"[2]; about 0.5 mg/ml peptide, 30 min post-injection",no significant changes in overall IF structure
same,reversibility of disassembly,[3]; 1:1 molar ratio,reversible upon removal of the peptide
same,time to disassembly of preformed IFs down to single coiled-coil molecules,"[3]; 1:1 molar ratio peptide to preformed keratin IFs, light scattering and electron microscopy",≤ 30 min
